Source: patent US9447092B2, “Pharmaceutically active compounds” (CANCER RESEARCH TECHNOLOGY LIMITED, priority 2012, dated 2016)
pIC50: −log10 of the molar value. Several values for one entry are separate records, joined by “and”; a condition that tells them apart may be missing. Equal values may be shown once. Read-outs that look alike come from different tables or passages of the source.

How the values were obtained:
[1] = Human liver microsomal stability; assay type: in vitro ADME; settings: human liver microsomes, after a 30 min incubation
Method: (§1) Compounds (10 μM) were incubated with mixed gender pooled human liver microsomes (1 mg·mL^−1) protein in the presence of NADPH (1 mM), UDPGA (2.5 mM) and MgCl2 (3 mM) in phosphate buffered saline (10 mM) at 37° C. Incubations were conducted for 0 and 30 minutes. Control incubations were generated by the omission of NADPH and UDPGA from the incubation reaction. The percentage compound remaining was determined after analysis by LCMS.

[2] = system: SW620 human colon carcinoma xenograft; settings: literature (ref 26); cited from earlier work
[3] = biological target: CYP3A4 (Homo sapiens (Human), UniProt P08684); assay: Inhibition of CYP isozymes in human liver microsomes, CYP3A4; settings: read-out: Estimated IC50 CYP3A4, probe Midazolam
CYP3A4, sequence (P08684 whole entry): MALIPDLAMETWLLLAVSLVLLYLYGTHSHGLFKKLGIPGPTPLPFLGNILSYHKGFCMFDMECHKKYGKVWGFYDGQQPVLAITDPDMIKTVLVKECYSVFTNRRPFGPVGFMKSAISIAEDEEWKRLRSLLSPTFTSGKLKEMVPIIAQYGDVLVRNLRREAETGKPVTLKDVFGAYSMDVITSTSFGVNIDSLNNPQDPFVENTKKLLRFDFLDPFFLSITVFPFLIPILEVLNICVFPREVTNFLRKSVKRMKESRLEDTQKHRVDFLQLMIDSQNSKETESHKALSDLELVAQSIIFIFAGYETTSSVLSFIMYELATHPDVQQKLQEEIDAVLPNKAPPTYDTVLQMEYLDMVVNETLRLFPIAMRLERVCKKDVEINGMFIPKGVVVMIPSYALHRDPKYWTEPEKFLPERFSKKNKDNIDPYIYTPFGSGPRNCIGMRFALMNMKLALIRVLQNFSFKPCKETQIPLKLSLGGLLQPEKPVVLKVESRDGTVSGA

[4] = biological target: T1, hERG (Homo sapiens (Human), UniProt Q12809)
T1 sequence (Q12809 whole entry): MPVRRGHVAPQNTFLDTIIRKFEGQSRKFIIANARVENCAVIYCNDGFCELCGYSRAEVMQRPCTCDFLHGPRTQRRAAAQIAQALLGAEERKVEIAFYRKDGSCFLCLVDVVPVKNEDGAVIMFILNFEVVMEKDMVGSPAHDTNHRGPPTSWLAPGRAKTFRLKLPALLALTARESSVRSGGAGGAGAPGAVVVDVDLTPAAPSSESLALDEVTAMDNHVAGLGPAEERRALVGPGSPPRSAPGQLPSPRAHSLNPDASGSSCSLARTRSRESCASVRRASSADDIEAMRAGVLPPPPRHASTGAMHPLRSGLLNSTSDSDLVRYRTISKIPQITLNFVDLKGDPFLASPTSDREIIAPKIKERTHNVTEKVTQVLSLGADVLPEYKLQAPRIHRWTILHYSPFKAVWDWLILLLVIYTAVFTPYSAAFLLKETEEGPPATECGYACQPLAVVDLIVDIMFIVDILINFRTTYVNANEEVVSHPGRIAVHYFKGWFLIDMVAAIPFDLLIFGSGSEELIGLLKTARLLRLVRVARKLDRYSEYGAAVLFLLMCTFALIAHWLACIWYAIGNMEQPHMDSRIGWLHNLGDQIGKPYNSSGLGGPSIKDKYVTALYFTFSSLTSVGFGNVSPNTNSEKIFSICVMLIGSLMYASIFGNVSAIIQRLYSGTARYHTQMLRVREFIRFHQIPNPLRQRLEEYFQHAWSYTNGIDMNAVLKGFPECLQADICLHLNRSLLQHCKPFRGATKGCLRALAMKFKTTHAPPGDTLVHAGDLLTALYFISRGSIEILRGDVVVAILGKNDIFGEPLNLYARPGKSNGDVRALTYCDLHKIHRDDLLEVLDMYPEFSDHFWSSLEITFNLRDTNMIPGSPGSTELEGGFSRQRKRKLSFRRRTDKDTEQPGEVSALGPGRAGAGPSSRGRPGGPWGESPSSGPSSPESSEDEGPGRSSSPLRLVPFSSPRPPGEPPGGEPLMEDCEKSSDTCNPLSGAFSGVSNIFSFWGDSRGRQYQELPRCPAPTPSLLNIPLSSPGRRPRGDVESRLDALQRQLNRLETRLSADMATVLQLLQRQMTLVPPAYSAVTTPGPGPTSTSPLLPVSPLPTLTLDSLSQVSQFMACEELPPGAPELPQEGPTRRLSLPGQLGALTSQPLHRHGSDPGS

[5] = biological target: CYP2C9 (Homo sapiens (Human), UniProt P11712); assay: Inhibition of CYP isozymes in human liver microsomes, CYP2C9
CYP2C9, sequence (P11712 whole entry): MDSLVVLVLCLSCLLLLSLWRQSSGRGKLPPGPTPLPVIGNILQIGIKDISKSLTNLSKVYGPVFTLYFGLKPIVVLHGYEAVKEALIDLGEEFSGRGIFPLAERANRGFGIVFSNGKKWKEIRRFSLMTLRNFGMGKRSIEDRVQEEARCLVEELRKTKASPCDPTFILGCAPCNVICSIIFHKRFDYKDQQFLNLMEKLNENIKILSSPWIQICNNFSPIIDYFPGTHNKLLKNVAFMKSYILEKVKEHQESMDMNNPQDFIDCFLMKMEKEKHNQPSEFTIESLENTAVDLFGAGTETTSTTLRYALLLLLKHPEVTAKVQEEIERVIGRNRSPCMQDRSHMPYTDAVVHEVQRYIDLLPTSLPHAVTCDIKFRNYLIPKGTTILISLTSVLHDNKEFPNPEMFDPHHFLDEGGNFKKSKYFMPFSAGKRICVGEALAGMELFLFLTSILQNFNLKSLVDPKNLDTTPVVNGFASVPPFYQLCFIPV

[6] = biological target: CYP1A2 (Homo sapiens (Human), UniProt P05177); assay: Inhibition of CYP isozymes in human liver microsomes, CYP1A2
CYP1A2, sequence (P05177 whole entry): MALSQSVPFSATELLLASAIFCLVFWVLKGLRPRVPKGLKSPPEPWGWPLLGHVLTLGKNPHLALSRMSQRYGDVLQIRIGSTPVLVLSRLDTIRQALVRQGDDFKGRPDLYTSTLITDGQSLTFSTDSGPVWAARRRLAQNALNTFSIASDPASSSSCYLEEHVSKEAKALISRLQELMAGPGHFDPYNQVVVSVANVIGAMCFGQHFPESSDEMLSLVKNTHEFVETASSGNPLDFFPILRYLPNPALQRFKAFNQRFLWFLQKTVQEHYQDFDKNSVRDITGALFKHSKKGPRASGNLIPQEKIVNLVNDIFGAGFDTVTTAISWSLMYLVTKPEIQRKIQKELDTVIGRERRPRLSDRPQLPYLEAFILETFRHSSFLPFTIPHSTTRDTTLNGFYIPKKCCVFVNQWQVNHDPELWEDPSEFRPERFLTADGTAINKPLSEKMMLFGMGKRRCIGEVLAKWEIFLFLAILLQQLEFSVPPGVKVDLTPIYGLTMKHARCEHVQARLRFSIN

[7] = biological target: CYP2D6 (Homo sapiens (Human), UniProt P10635); assay: Inhibition of CYP isozymes in human liver microsomes, CYP2D6
CYP2D6, sequence (P10635 whole entry): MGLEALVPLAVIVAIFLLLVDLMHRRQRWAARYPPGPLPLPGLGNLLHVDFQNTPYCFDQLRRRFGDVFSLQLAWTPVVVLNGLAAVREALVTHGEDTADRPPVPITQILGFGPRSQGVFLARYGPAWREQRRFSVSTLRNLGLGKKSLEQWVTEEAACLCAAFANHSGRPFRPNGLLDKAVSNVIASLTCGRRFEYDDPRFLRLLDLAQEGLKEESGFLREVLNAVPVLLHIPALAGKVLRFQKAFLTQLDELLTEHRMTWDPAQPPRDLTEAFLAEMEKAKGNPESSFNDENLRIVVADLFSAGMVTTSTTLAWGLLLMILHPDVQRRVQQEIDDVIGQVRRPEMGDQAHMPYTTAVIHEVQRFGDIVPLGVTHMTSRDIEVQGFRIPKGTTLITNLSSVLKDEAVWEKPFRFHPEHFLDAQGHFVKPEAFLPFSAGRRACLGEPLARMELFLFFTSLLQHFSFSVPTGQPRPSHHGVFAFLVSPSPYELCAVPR

[8] = biological target: CYP2A6 (Homo sapiens (Human), UniProt P11509); assay: Inhibition of CYP isozymes in human liver microsomes, CYP2A6; settings: read-out: Estimated IC50 CYP2A6, probe Coumarin
CYP2A6, sequence (P11509 whole entry): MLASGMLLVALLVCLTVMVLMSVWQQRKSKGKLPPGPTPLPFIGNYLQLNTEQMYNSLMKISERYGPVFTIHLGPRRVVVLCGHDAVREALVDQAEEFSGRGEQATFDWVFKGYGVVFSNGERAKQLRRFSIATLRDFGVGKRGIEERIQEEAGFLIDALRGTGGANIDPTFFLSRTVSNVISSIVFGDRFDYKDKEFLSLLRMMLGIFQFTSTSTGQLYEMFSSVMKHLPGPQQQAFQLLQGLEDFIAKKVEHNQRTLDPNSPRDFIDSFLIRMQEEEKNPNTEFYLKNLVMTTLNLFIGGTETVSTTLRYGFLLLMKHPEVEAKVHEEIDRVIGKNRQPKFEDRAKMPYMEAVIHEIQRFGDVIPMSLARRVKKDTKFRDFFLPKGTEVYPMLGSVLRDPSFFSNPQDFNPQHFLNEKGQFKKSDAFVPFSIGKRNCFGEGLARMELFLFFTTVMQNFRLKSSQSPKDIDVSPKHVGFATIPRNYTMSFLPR

[9] = biological target: Aurora-A (Homo sapiens (Human), UniProt O14965); settings: read-out: Aurora-A IC50; biochemical assay
Aurora-A, sequence (O14965 whole entry): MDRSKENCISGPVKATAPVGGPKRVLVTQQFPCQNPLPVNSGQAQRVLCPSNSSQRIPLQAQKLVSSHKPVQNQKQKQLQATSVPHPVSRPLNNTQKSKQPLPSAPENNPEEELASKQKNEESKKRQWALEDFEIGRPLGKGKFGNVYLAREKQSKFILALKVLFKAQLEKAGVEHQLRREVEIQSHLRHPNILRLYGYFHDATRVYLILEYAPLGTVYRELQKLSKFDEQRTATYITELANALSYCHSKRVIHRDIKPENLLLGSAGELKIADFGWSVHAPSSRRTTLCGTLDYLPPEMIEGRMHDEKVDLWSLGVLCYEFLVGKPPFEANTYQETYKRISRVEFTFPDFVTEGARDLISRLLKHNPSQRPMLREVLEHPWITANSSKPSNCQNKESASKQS
Method: Aurora kinase assays: Aurora kinase IC50 values were determined as previously described.^26, 36

[10] = biological target: CYP2C19 (Homo sapiens (Human), UniProt P33261); assay: Inhibition of CYP isozymes in human liver microsomes, CYP2C19
CYP2C19, sequence (P33261 whole entry): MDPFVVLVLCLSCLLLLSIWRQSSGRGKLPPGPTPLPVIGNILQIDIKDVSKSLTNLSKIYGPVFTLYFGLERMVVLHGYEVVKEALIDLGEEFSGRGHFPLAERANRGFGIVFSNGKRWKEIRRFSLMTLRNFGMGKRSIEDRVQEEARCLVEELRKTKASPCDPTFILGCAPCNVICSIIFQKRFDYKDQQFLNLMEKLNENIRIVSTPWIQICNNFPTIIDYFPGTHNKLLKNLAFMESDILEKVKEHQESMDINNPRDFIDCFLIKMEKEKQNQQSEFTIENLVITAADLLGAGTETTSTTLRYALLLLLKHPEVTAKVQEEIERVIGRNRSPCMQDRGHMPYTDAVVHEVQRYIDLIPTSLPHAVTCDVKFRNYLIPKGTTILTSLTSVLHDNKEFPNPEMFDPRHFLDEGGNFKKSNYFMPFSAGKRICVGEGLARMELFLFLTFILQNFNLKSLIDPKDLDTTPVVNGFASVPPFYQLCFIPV

[11] = Log D measurement; assay type: physicochemical; settings: pH 7.4, experimentally determined value
Method: Physicochemical properties: Log D and pKa measurements were performed by Pharmorphix® Solid State Services, Member of the Sigma-Aldrich Group, Cambridge, UK.

[12] = biological target: Aurora-B (Homo sapiens (Human), UniProt Q96GD4); assay: KINOMEScan Aurora-B; assay type: binding; settings: read-out: % control Aurora-B
Aurora-B, sequence (Q96GD4 whole entry): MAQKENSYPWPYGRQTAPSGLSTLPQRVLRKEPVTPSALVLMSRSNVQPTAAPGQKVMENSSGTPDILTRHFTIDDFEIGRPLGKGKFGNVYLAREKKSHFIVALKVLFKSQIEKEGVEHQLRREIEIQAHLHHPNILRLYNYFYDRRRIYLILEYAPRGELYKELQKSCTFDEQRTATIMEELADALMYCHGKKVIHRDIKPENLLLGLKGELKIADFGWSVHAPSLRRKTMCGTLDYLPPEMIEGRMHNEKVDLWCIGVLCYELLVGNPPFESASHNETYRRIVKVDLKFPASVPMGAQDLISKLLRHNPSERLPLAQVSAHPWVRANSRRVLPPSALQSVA
Method: (§2) Kinase selectivity profiling: Kinase profiling using the KINOMEScan™ technology and Kd determinations were performed by KINOMEscan, a Division of DiscoveRx Corporation, San Diego, Calif., USA; www.kinomescan.com.

[13] = Mouse liver microsomal stability; assay type: in vitro ADME; settings: mouse liver microsomes, after a 30 min incubation
Method: as §1, with “male CD1 mouse” for “mixed gender pooled human”

[14] = system: MV4-11 human tumour xenografts; assay: Human tumour xenograft efficacy study (MV4-11); assay type: in vivo
Description: Brit J Cancer 102: 1555-1577, 2010.

[15] = system: HCT116 human colon carcinoma; assay: Cell viability assay, HCT116; assay type: cell-based; settings: HCT-116
[16] = system: phosphorylation of STAT5 at Y694; assay: 4-day PK/PD study: STAT5 phosphorylation in MV4-11 xenografts; assay type: in vivo, mouse; settings: 50 and 100 mg/kg oral twice daily, 4 days
Method: (§3) Tumour samples were obtained 2 h after the final dose. Total histone H3, total Stat5 and GAPDH were used as loading controls.

[17] = biological target: FLT3-ITD (Homo sapiens, UniProt P36888); assay: KINOMEScan FLT3-ITD; assay type: binding; settings: 1 μM primary screening
Method: as §2

[18] = biological target: FLT3(D835H) (Homo sapiens (Human), UniProt P36888, D835H); assay: KINOMEScan FLT3(D835H); assay type: binding; settings: 1 μM primary screening
Method: as §2

[19] = In vivo full PK in mouse
[20] = biological target: FLT3 (Homo sapiens (Human), UniProt P36888); assay: KINOMEScan FLT3; assay type: binding; settings: 1 μM primary screening
Method: as §2

[21] = biological target: FLT3(D835Y) (Homo sapiens (Human), UniProt P36888, D835Y); assay: KINOMEScan FLT3(D835Y); assay type: binding; settings: 1 μM primary screening
Method: as §2

[22] = system: histone H-3 phosphorylation at S10; assay: 4-day PK/PD study: histone H-3 phosphorylation in MV4-11 xenografts; assay type: in vivo, mouse; settings: 50 and 100 mg/kg oral twice daily, 4 days
Method: as §3

[23] = system: 442-kinase panel (386 non-mutant kinases); assay: KINOMEScan kinase selectivity profiling, 442-kinase panel; assay type: binding; settings: 1 μM; >90% competition
Method: as §2

[24] = biological target: T1, hERG; assay: hERG inhibition (cell-based electrophysiology, hERG tail current)

Cc1cc(CN2CCN(c3c(Br)cnc4nc(-c5ccc(N6CCN(C)CC6)cc5)[nH]c34)CC2)no1 [CCT137690, reference compound]
HLM: Percentage of parent compound metabolised [1]: 86% | growth of a SW620 human colon carcinoma xenograft in vivo [2]: inhibits the growth

Cn1cc(-c2nc3c(N4CCN(Cc5cccnc5)CC4)c(Br)cnc3[nH]2)cn1 [Comparator 1, 6-bromo-2-(1-methyl-1H-pyrazol-4-yl)-7-(4-(pyridine-3-ylmethyl)piperazin-1-yl)-3H-imidazo[4,5-b]pyridine]
pIC50 [3]: > 6.00 | pIC50 [4]: 5.26 | pIC50 [5]: 4.30 to 5.00 | pIC50 [6]: 4.30 to 5.00 | pIC50 [7]: 5.00 to 6.00 | pIC50 [8]: < 4.30 | pIC50 [9]: 7.49 | pIC50 [10]: 4.30 to 5.00

Cc1nn(C)c(C)c1-c1nc2c(N3CCN(Cc4cccnc4)CC3)c(Br)cnc2[nH]1 [Comparator 2, 6-bromo-7-(4-(pyridine-3-ylmethyl)piperazin-1-yl)-2-(1,3,5-trimethyl-1H-pyrazol-4-yl)-3H-imidazo[4,5-b]pyridine]
pIC50 [3]: > 6.00 | pIC50 [4]: 4.97 | pIC50 [5]: 4.30 to 5.00 | pIC50 [7]: 4.30 to 5.00 | pIC50 [8]: < 4.30 | pIC50 [9]: 6.52 | pIC50 [10]: 4.30 to 5.00

Cc1nn(C)cc1-c1nc2c(N3CCN(Cc4ccc(Cl)cc4)CC3)c(Cl)cnc2[nH]1 [Example 1, 6-Chloro-7-(4-(4-chlorobenzyl)piperazin-1-yl)-2-(1,3-dimethyl-1H-pyrazol-4-yl)-3H-imidazo[4,5-b]pyridine]
LogD7.4 [11]: ^cLogD7.4 = 3.84 (experimentally determined value). | pIC50 [3]: < 4.30 | pIC50 [4]: < 4.60 | HLM: Percentage of parent compound metabolised [1]: 10% | remaining binding at 1 µM [12]: 1% | MLM: Percentage of parent compound metabolised [13]: 34% | day single mice were culled (mean tumour volume increased by over 500%) ([14]; 50 mg/kg): 28 days and 31 days | tumour volume, % of the initial volume after 11 days ([14]; 50 mg/kg dosing schedule): 42% | day single mice were culled (mean tumour volume increased by over 500%) ([14]; 100 mg/kg): 46 days and 56 days | tumours when therapy was discontinued after 11 days ([14]; 100 mg/kg dosing schedule): undetectable | toxicity as defined by body weight loss ([14]; athymic mice, oral 50 and 100 mg/kg): no observed toxicity | growth of MV4-11 human tumour xenografts ([14]; athymic mice, oral 50 and 100 mg/kg, dose dependent): strongly inhibited the growth | mice that failed to develop progressively growing tumours ([14]; each treatment group (50 and 100 mg/kg), study terminated on day 60): 60% | GI50 [15]: 0.3 µM | STAT5 phosphorylation [16]: inhibition of STAT5 phosphorylation | pIC50 [8]: < 4.30 | competition for FLT3-ITD [17]: greater than 94% | competition for FLT3(D835H) [18]: greater than 94% | Vd ([19]; female, Balb/C, plasma, 5 mg/kg): 0.066 L and ~3.3 L/kg | clearance ([19]; female, Balb/C, plasma, iv, 5 mg/kg): 0.967 mL/min | AUCinf, (iv) ([19]; iv 5 mg/kg): 3.753 µM·h | Cl, (iv) ([19]; iv 5 mg/kg): 0.058 L/h | t½, (iv) ([19]; iv 5 mg/kg): 50.4 min | F % (po) ([19]; oral 5 mg/kg): 100% | competition for FLT3 kinase [20]: greater than 94% | competition for FLT3(D835Y) [21]: greater than 94% | histone H-3 phosphorylation [22]: clear inhibition | hits from the 386 non-mutant kinases tested [23]: 22

Cc1nn(C)cc1-c1nc2c(N3CCN(Cc4ncon4)CC3)c(Cl)cnc2[nH]1 [Example 2, 3-((4-(6-Chloro-2-(1,3-dimethyl-1H-pyrazol-4-yl)-3H-imidazo[4,5-b]pyridin-7-yl)piperazin-1-yl)methyl)-1,2,4-oxadiazole]
pIC50 [3]: < 4.30 | HLM: Percentage of parent compound metabolised [1]: 22% | MLM: Percentage of parent compound metabolised [13]: 67%

Cc1nc(CN2CCN(c3c(Cl)cnc4[nH]c(-c5cn(C)nc5C)nc34)CC2)no1 [Example 3, 3-((4-(6-Chloro-2-(1,3-dimethyl-1H-pyrazol-4-yl)-3H-imidazo[4,5-b]pyridin-7-yl)piperazin-1-yl)methyl)-5-methyl-1,2,4-oxadiazole]
pIC50 [3]: < 4.30 | pIC50 [24]: 5.02 | HLM: Percentage of parent compound metabolised [1]: 20% | MLM: Percentage of parent compound metabolised [13]: 58% | pIC50 [8]: < 4.30 | pIC50 [10]: < 4.30
